Assays:
CEM-SS [1] = assay: Tested for the therapeutic index against CEM-SS cells of HIV-1 (IIIb); assay type: functional, Homo sapiens
CEM-SS [2] = assay: Tested for the therapeutic index against CEM-SS cells of HIV-1 (RF); assay type: functional, Homo sapiens
CEM-SS [3] = assay: Tested for the therapeutic index against CEM-SS cells of HIV-2 (NIH-D2); assay type: functional, Homo sapiens
CEM-SS [4] = assay: Tested for the antiviral activity against CEM-SS cells infected with HIV-2 (NIH-D2); assay type: functional, cell-based; settings: Homo sapiens
CEM-SS [5] = assay: Tested for the inhibitory activity against CEM-SS cells; assay type: functional, cell-based; settings: Homo sapiens
CEM-SS [6] = assay: Tested for the antiviral activity against CEM-SS cells infected with HIV-1 (RF); value ranges from 2-15.; assay type: functional, cell-based; settings: Homo sapiens
MT4 [7] = assay: Tested for the antiviral activity against MT-4 cells infected with HIV (IIIb) strain resistant to non-nucleoside reverse transcriptase inhibitors; assay type: functional, cell-based; settings: Homo sapiens
MT4 [8] = assay: Tested for the inhibitory activity against MT-4 cells; assay type: functional, cell-based; settings: Homo sapiens
MT2 [9] = assay: Tested for the therapeutic index against MT-2 cells of AZT resistant strain of HIV-1 (A012); assay type: functional, Homo sapiens
MT2 [10] = assay: Tested for the therapeutic index against MT-2 cells of AZT sensitive strain of HIV-1 (A012); assay type: functional, Homo sapiens
MT2 [11] = assay: Tested for the antiviral activity against MT-2 cells infected with AZT resistant strain of HIV-1 (A012); assay type: functional, cell-based; settings: Homo sapiens
MT2 [12] = assay: Tested for the antiviral activity against MT-2 cells infected with AZT sensitive strain of HIV-1 (A012); assay type: functional, cell-based; settings: Homo sapiens
MT2 [13] = assay: Tested for the inhibitory activity against MT-2 cells; assay type: functional, cell-based; settings: Homo sapiens
MT4 [14] = assay: Tested for the therapeutic index against MT-4 cells of HIV-1 (IIIb); assay type: functional, Homo sapiens
[15] = Tested for the antiviral activity against Sc-1 cells infected with rauscher murine leukemia virus (R-Mul V) by plaque assay in mouse; assay type: functional, cell-based
[16] = Tested for the antiviral activity of production of viral antigen (p30) against Sc-1 cells of rauscher murine leukemia virus (R-Mul V); assay type: functional, cell-based; settings: Mus musculus
[17] = Tested for the inhibitory activity of production of viral antigen (p30) against Sc-1 cells of rauscher murine leukemia virus (R-Mul V); assay type: functional, cell-based; settings: Mus musculus
[18] = Tested for the therapeutic index against Sc-1 cells of rauscher murine leukemia virus (R-Mul V) by plaque assay in mouse; assay type: functional
[19] = Tested for the therapeutic index of production of viral antigen (p30) against Sc-1 cells of rauscher murine leukemia virus (R-Mul V); assay type: functional, Mus musculus
[20] = Tested for the inhibitory activity against Sc-1 cells by plaque assay in mouse; assay type: functional, cell-based

In the case of `CC(C)CCCC(C)[C@H]1CC[C@H]2[C@@H]3CCC4C[C@@H](CCC=C(c5cc(Cl)c(O)c(C(=O)O)c5)c5cc(Cl)c(O)c(C(=O)O)c5)CC[C@]4(C)[C@H]3CC[C@]12C` (stereo not given in full), the TI50 (CEM-SS [1]) is reported as >100, the TI50 (CEM-SS [2]) is reported as >20 and the TI50 (CEM-SS [3]) is reported as >60. The EC50 (CEM-SS [4]) was 5 µM, the IC50 (CEM-SS [5]) was > 300 µM and the EC50 (CEM-SS [6]) was 2 µM. The EC50 (MT4 [7]) was 20 µM, the IC50 (MT4 [8]) was > 300 µM and the TI50 (MT2 [9]) was 20. It also gave a TI50 (MT2 [10]) of 25, an EC50 (MT2 [11]) of 10 µM and an EC50 (MT2 [12]) of 8 µM. The IC50 (MT2 [13]) was 200 µM, the TI50 (MT4 [14]) was >15 and the EC50 [15] was 4 µM. The EC50 [16] was 7 µM, the IC50 [17] was > 32 µM and the TI50 [18] was >8. For the same compound, the TI50 [19] was >4 and the IC50 [20] was > 32 µM.

Reference: ChEMBL document CHEMBL1150978, “Design and synthesis of cosalane, a novel anti-HIV agent” (Bioorg Med Chem Lett, 1993)
